The values that follow come from publication PMC2610488 (Journal of medicinal chemistry, 2008).

In assay [1] the target is M. tuberculosis HisG (ATP-PRTase) (Mycobacterium tuberculosis, UniProt P9WMN1). The format is biochemical. As to conditions: read-out: inhibition of enzyme activity.
A further assay deals with E. coli HisG. As to conditions: E. coli enzyme; cited from earlier work.
The target in a further assay is HisG. As to conditions: competitive inhibitor for both substrates; cited from earlier work.
For assay [2], the system named is Arabidopsis thaliana HisG. As to conditions: cited from earlier work.
The test system of a further assay is M. smegmatis. The assay is described as follows: Whole-cell assay, growth inhibition on agar plates. The following applies: 12 μg/ml, 4 days. The format is cell-based.

Sequence of M. tuberculosis HisG (ATP-PRTase) (P9WMN1 whole entry): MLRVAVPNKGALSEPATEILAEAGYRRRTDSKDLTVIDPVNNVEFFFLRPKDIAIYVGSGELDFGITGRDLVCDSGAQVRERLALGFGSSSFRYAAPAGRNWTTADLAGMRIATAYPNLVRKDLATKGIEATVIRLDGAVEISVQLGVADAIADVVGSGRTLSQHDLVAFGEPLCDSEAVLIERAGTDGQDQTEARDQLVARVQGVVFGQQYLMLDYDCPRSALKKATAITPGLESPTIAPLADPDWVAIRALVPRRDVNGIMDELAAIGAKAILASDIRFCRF

One may read the inhibition as how much of the control response was suppressed. In the case of `COc1ccc(COC(=O)C2=C(C)NC3=C(C(=O)CC(c4cccs4)C3)C2c2cccs2)cc1` (stereo not shown) [Compound 10], the inhibition at 10 µM in assay [1] was more than 50%.
Usually Ki stands for the equilibrium dissociation constant of an inhibitor or competing ligand from its target. Regarding `O=c1oc2ccccc2c(O)c1Cc1c(O)c2ccccc2oc1=O` [dicoumarol], in the assay with E. coli HisG, the Ki was 60 µM.
Regarding `O=C(CSc1nnc(-c2ccccc2)c(-c2ccccc2)n1)Cc1nccs1` [Compound 4], the inhibition at 10 µM in assay [1] was more than 50%.
For the molecule `Nc1ncnc2c1ncn2[C@@H]1O[C@H](COP(=O)(O)O)[C@@H](O)[C@H]1O` [AMP, adenosine monophosphate], the inhibition constant Ki on HisG was 550 µM.
In the case of `O=C(CC(NC(=O)c1ccccc1)c1ccccc1)Nc1nc2ccc([N+](=O)[O-])cc2s1` (stereo not shown) [Compound 6], the inhibition at 10 µM in assay [1] is more than 50%.
One may read the IC50 as the midpoint of a concentration-inhibition curve. For the molecule di-(amino-naphthyl)-disulfide, the IC50 in assay [2] was 0.05 µM.
With `O=[N+]([O-])c1ccc(Nc2cc(Nc3cccc(O)c3)c3nonc3c2[N+](=O)[O-])c(O)c1` [Compound 18], in the assay on M. smegmatis, the growth inhibition entry was “significant growth inhibition”.
